Reference: PubChem BioAssay AID200 (DTP/NCI, 2004)
“And” between values parts separate entries of the source, which are not always exact repeats. Identical values can stand only once. Toxic doses and inconclusive results are not listed.

Tested on: B6C3F1 mice, B16 melanoma ip, median survival T/C
Experiment: NCI In Vivo Anticancer Drug Screen. Data for tumor model B16 Melanoma (intraperitoneal) in B6C3F1 mice
Settings: endpoint: median survival time, higher = longer survival
Summary of the method: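 Readout: survival or tumor size in treated mice relative to vehicle controls (T/C). Model uses transplantable tumors grown in mice.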

[1] = dose: 3.12 mg/kg/injection, schedule: Q01DX009 (ip), vehicle: saline with Tween-80
[2] = dose: 6.25 mg/kg/injection, schedule: Q01DX009 (ip), vehicle: saline with Tween-80
[3] = dose: 12.5 mg/kg/injection, schedule: Q01DX009 (ip), vehicle: saline with Tween-80
[4] = dose: 25.0 mg/kg/injection, schedule: Q01DX009 (ip), vehicle: saline with Tween-80
[5] = dose: 0.78 mg/kg/injection, schedule: Q01DX009 (ip), vehicle: saline with Tween-80
[6] = dose: 1.56 mg/kg/injection, schedule: Q01DX009 (ip), vehicle: saline with Tween-80
[7] = dose: 50.0 mg/kg/injection, schedule: Q01DX009 (ip), vehicle: saline with Tween-80

Compound: O=C1c2c(O)ccc(O)c2C(=O)c2c(NCCNCCO)ccc(NCCNCCO)c21
- T/C (dose: 0.12 mg/kg/injection, schedule: Q01DX009 (ip), vehicle: water): 111 % of control
- T/C (dose: 0.12 mg/kg/injection, schedule: Q03HX024 (ip), vehicle: acid diluted with saline): 287 % of control
- T/C (dose: 0.13 mg/kg/injection, schedule: Q01DX009 (ip), vehicle: water): 184 % of control
- T/C (dose: 0.25 mg/kg/injection, schedule: Q01DX005 (ip), vehicle: saline): 183 % of control
- T/C (dose: 0.25 mg/kg/injection, schedule: Q01DX005 (iv), vehicle: acid diluted with saline): 102 % of control
- T/C (dose: 0.25 mg/kg/injection, schedule: Q01DX005 (iv), vehicle: saline): 88 % of control
- T/C (dose: 0.25 mg/kg/injection, schedule: Q01DX009 (ip), vehicle: acid diluted with saline): 172 % of control
- T/C (dose: 0.25 mg/kg/injection, schedule: Q01DX009 (ip), vehicle: water): 212 % of control [middle of 4 runs]
- T/C (dose: 0.25 mg/kg/injection, schedule: Q01DX009 (sc), vehicle: acid diluted with saline): 101 % of control
- T/C (dose: 0.25 mg/kg/injection, schedule: Q03HX008 (ip), vehicle: acid diluted with saline): 206 % of control
- T/C (dose: 0.25 mg/kg/injection, schedule: Q03HX024 (ip), vehicle: acid diluted with saline): 292 % of control
- T/C (dose: 0.31 mg/kg/injection, schedule: Q01DX009 (ip), vehicle: water): 168 % of control
- T/C (dose: 0.5 mg/kg/injection, schedule: Q01DX005 (ip), vehicle: saline): 206 % of control
- T/C (dose: 0.5 mg/kg/injection, schedule: Q01DX005 (iv), vehicle: acid diluted with saline): 99 % of control
- T/C (dose: 0.5 mg/kg/injection, schedule: Q01DX005 (iv), vehicle: saline): 93 % of control
- T/C (dose: 0.5 mg/kg/injection, schedule: Q01DX009 (ip), vehicle: acid diluted with saline): 185 % of control
- T/C (dose: 0.5 mg/kg/injection, schedule: Q01DX009 (ip), vehicle: other): 222 % of control
- T/C (dose: 0.5 mg/kg/injection, schedule: Q01DX009 (ip), vehicle: water): 216 % of control and 326 % of control and 337 % of control
- T/C (dose: 0.5 mg/kg/injection, schedule: Q01DX009 (sc), vehicle: acid diluted with saline): 121 % of control
- T/C (dose: 0.5 mg/kg/injection, schedule: Q03HX008 (ip), vehicle: acid diluted with saline): 219 % of control
- T/C (dose: 0.62 mg/kg/injection, schedule: Q01DX009 (ip), vehicle: water): 198 % of control and 234 % of control
- T/C (dose: 1.0 mg/kg/injection, schedule: Q01DX005 (ip), vehicle: saline): 275 % of control
- T/C (dose: 1.0 mg/kg/injection, schedule: Q01DX005 (iv), vehicle: acid diluted with saline): 99 % of control
- T/C (dose: 1.0 mg/kg/injection, schedule: Q01DX005 (iv), vehicle: saline): 105 % of control
- T/C (dose: 1.0 mg/kg/injection, schedule: Q01DX009 (ip), vehicle: acid diluted with saline): 229 % of control
- T/C (dose: 1.0 mg/kg/injection, schedule: Q01DX009 (ip), vehicle: other): 220 % of control
- T/C (dose: 1.0 mg/kg/injection, schedule: Q01DX009 (ip), vehicle: water): 326 % of control [middle of 4 runs]
- T/C (dose: 1.0 mg/kg/injection, schedule: Q01DX009 (oral), vehicle: acid diluted with saline): 103 % of control
- T/C (dose: 1.0 mg/kg/injection, schedule: Q03HX008 (ip), vehicle: acid diluted with saline): 284 % of control
- T/C (dose: 1.0 mg/kg/injection, schedule: Q04DX003 (ip), vehicle: acid diluted with saline): 200 % of control
- T/C (dose: 1.25 mg/kg/injection, schedule: Q01DX009 (ip), vehicle: water): 238 % of control and 252 % of control
- T/C (dose: 2.0 mg/kg/injection, schedule: Q01DX005 (ip), vehicle: saline): 275 % of control
- T/C (dose: 2.0 mg/kg/injection, schedule: Q01DX005 (iv), vehicle: acid diluted with saline): 121 % of control
- T/C (dose: 2.0 mg/kg/injection, schedule: Q01DX005 (iv), vehicle: saline): 100 % of control
- T/C (dose: 2.0 mg/kg/injection, schedule: Q01DX009 (ip), vehicle: acid diluted with saline): 151 % of control
- T/C (dose: 2.0 mg/kg/injection, schedule: Q01DX009 (ip), vehicle: other): 105 % of control
- T/C (dose: 2.0 mg/kg/injection, schedule: Q01DX009 (ip), vehicle: water): 162 % of control and 187 % of control
- T/C (dose: 2.0 mg/kg/injection, schedule: Q01DX009 (oral), vehicle: acid diluted with saline): 102 % of control
- T/C (dose: 2.0 mg/kg/injection, schedule: Q03HX008 (ip), vehicle: acid diluted with saline): 292 % of control
- T/C (dose: 2.0 mg/kg/injection, schedule: Q04DX003 (ip), vehicle: acid diluted with saline): 224 % of control
- T/C (dose: 4.0 mg/kg/injection, schedule: Q01DX001 (ip), vehicle: acid diluted with saline): 200 % of control and 254 % of control
- T/C (dose: 4.0 mg/kg/injection, schedule: Q01DX001 (iv), vehicle: acid diluted with saline): 108 % of control
- T/C (dose: 4.0 mg/kg/injection, schedule: Q01DX009 (ip), vehicle: water): 262 % of control
- T/C (dose: 4.0 mg/kg/injection, schedule: Q01DX009 (oral), vehicle: acid diluted with saline): 96 % of control
- T/C (dose: 4.0 mg/kg/injection, schedule: Q04DX003 (ip), vehicle: acid diluted with saline): 278 % of control
- T/C (dose: 8.0 mg/kg/injection, schedule: Q01DX001 (ip), vehicle: acid diluted with saline): 219 % of control and 260 % of control
- T/C (dose: 8.0 mg/kg/injection, schedule: Q01DX001 (iv), vehicle: acid diluted with saline): 104 % of control
- T/C (dose: 8.0 mg/kg/injection, schedule: Q04DX003 (ip), vehicle: acid diluted with saline): 92 % of control
- T/C (dose: 9.0 mg/kg/injection, schedule: Q01DX001 (ip), vehicle: acid diluted with saline): 245 % of control and 98 % of control
- T/C (dose: 16.0 mg/kg/injection, schedule: Q01DX001 (ip), vehicle: acid diluted with saline): 220 % of control and 292 % of control
- T/C (dose: 18.0 mg/kg/injection, schedule: Q01DX001 (ip), vehicle: acid diluted with saline): 196 % of control
- T/C (dose: 32.0 mg/kg/injection, schedule: Q01DX001 (ip), vehicle: acid diluted with saline): 234 % of control

Compound: CNC=O
- T/C (dose: 100.0 mg/kg/injection, schedule: Q01DX009 (ip), vehicle: saline): 101 % of control
- T/C (dose: 200.0 mg/kg/injection, schedule: Q01DX009 (ip), vehicle: saline): 108 % of control
- T/C (dose: 400.0 mg/kg/injection, schedule: Q01DX009 (ip), vehicle: saline): 95 % of control

Compound: S=c1nc[nH]c2nc[nH]c12
- T/C (dose: 6.25 mg/kg/injection, schedule: Q01DX009 (ip), vehicle: Klucel (hydroxypropylcellulose) (HPC)): 100 % of control
- T/C (dose: 7.5 mg/kg/injection, schedule: Q01DX009 (ip), vehicle: Klucel (hydroxypropylcellulose) (HPC)): 97 % of control
- T/C (dose: 12.5 mg/kg/injection, schedule: Q01DX009 (ip), vehicle: Klucel (hydroxypropylcellulose) (HPC)): 94 % of control
- T/C (dose: 25.0 mg/kg/injection, schedule: Q01DX009 (ip), vehicle: Klucel (hydroxypropylcellulose) (HPC)): 96 % of control

Compound: CCCCCCCCCCCCCC#CC(=O)O
- T/C [1]: 110 % of control and 94 % of control
- T/C [2]: 112 % of control and 94 % of control
- T/C [3]: 92 % of control and 105 % of control
- T/C [4]: 89 % of control

Compound: C=CC(=O)N1CN(C(=O)C=C)CN(C(=O)C=C)C1
- T/C [5]: 99 % of control
- T/C [6]: 100 % of control
- T/C [1]: 100 % of control
- T/C [2]: 106 % of control
- T/C [3]: 86 % of control

Compound: O=C(Nc1ccc([N+](=O)[O-])cc1)Nc1nccs1
- T/C (dose: 12.5 mg/kg/injection, schedule: Q01DX009 (ip), vehicle: distilled water + Tween-80): 111 % of control and 120 % of control
- T/C (dose: 25.0 mg/kg/injection, schedule: Q01DX009 (ip), vehicle: distilled water + Tween-80): 111 % of control
- T/C (dose: 100.0 mg/kg/injection, schedule: Q01DX009 (ip), vehicle: distilled water + Tween-80): 105 % of control

Compound: Cn1nnc2c1C(=O)c1ccccc1C2=O
- T/C [7]: 88 % of control
- T/C (dose: 100.0 mg/kg/injection, schedule: Q01DX009 (ip), vehicle: saline with Tween-80): 90 % of control
- T/C (dose: 200.0 mg/kg/injection, schedule: Q01DX009 (ip), vehicle: saline with Tween-80): 89 % of control

Compound: COP12(OCCO1)SC(C(F)(F)F)=C(C(F)(F)F)S2
- T/C [3]: 100 % of control
- T/C [4]: 96 % of control
- T/C [7]: 104 % of control

Compound: BrC1c2cccc3cccc(c23)C1Br (stereo unspecified)
- T/C [3]: 123 % of control
- T/C [7]: 155 % of control

Compound: Cc1ccc(NCC2(/N=C/c3ccccc3)OC(CO)C(O)C2O)cc1 (stereo unspecified)
- T/C (dose: 400.0 mg/kg/injection, schedule: Q01DX009 (ip), vehicle: Klucel (hydroxypropylcellulose) (HPC)): 161 % of control

Compound: Cn1c(=O)c2c(nc(CCCCc3nc4c(c(=O)n(C)c(=O)n4C)n3C)n2C)n(C)c1=O
- T/C [5]: 91 % of control
- T/C [6]: 109 % of control
- T/C (dose: 3.13 mg/kg/injection, schedule: Q01DX009 (ip), vehicle: saline with Tween-80): 93 % of control
- T/C [2]: 93 % of control

Compound: Nc1nc(SCc2ccccc2Cl)c2ncn(C3OC(CO)C(O)C3O)c2n1 (stereo unspecified)
- T/C [3]: 106 % of control
- T/C [4]: 90 % of control
